This assay has as its system APOE-gene deficient mice (BALB/c.KOR/StmSlc-Apoe^shl). The assay is described as follows: Y maze test of spacial working memory. Type of assay: in vivo. The settings on record: intake from age of 8 weeks, examined 250 days later (10-month old).

Description: The wild type mice used were BALB/cCrSlc and the APOE-gene deficient mice used were BALB/c.KOR/StmSlc-Apoe^shl.
The cognitive function was measured by the Y maze test (Conrad C D. et al., Brain Res. 1997; 759:76-83). Its principle is as follows. Animals placed in the center of 3 arms in the Y-shape start exploratory behavior after a while. Normal animals rarely return to the arm once explored and explore different arms in turn with the help of marks seen out of the maze. However, model animals with declined space recognition and/or memory go to the same place many times and enter the arm that the animal entered the last time again. In the Y maze test, the order of the arms that an animal entered during a certain period of time is measured and the percentage of the number of times (percent alternation) when the mouse entered all different arms in a consecutive raw of three times as an indicator of space recognition and memory.
Powder feed containing 0.1 g of MgH2 in 1 kg of MF powder feed (a product manufactured by Oriental Yeast Co., ltd.) was produced and the animals were allowed to take the feed freely. […] The control feed was feed containing 0.22 g of Mg(OH)2 per 1 kg of MF powder feed. The feed was changed with fresh feed five times a week.
The control mice were placed for 1 hour in a chamber containing the air five times a week.

For the compound `[H-].[H-].[Mg+2]` [MgH2, magnesium hydride], the “spacial working memory (percent alternation, Y maze, FIG. 4)” value is “the decline of spacial working memory was decreased”.

Consider `[HH]` [hydrogen gas], for which the “spacial working memory (percent alternation, Y maze, FIG. 4)” value is “the decline of spacial working memory was decreased”.

For the origin of these results see patent US20200196637A1, “COMPOSITION FOR PREVENTION OR TREATMENT OF MILD COGNITIVE […] […] […] AS ACTIVE INGREDIENT” (priority 2016, published 2020).
